Reference: article PMC7408095 (Pharmaceutics, 2020)
Where two headings read alike, the source gives them in different places.

Assays:
[1] = Plasma pharmacokinetics of atorvastatin, 2-OH AT and 4-OH AT in rats (UPLC-MS/MS); conditions: for AUC0-t / AUC0-∞ / Cmax / metabolite/atorvastatin Cmax ratio: rat plasma
Description: (§1) The concentration of each of the working solutions was 10 μg/mL. The sample preparation involved liquid-liquid extraction. […] The analytes were separated in a Zorbax Plus C18 column (100 × 2.1 mm; 3.5 μm) (Agilent Technologies, Santa Clara, California, USA) at a column temperature of 40 °C. The mobile phase was a mixture of de-ionized water (A) and acetonitrile (B), both containing 0.1% (v/v) formic acid. […] The mobile phase flow was set to 0.3 mL/min. The eluent from the HPLC column was introduced directly to the MS interface, using electrospray ionization in the positive ion mode. The MS parameters were as follows: interface temperature, 350 °C; DL temperature, 250 °C; heat block temperature, 400 °C; nebulizing gas flow, 2 L/min; and drying gas flow, 15 L/min. The electrospray needle voltage was 3.5 kV. The specific transitions for the analytes were monitored using the multiple reaction monitoring (MRM) mode.

[2] = rat, in vivo, po, 20 mg/kg
Description: as §1

[3] = Adverse effects of the doses used in healthy rats; type: in vivo
[4] = rat, in vivo, 20 mg/kg; cited from earlier work
[5] = rat, in vivo, po, 100 mg/kg
Excerpt: (§2) The Phoenix® WinNonlin version 8.0 software (Certara, Princeton, New Jersey, USA) was used for the calculation of the following pharmacokinetic parameters: • The elimination rate constant (ke); • The absorption rate constant (ka); • The elimination half-life (t1/2); • The maximum plasma concentration (Cmax); • The time to reach the Cmax (tmax); • The total area under the concentration–time curve (AUC0-t and AUC0--∞); • The apparent plasma drug clearance (Cl/F); • The apparent volume of distribution (Vd/F).

[6] = Plasma pharmacokinetics of sorafenib and sorafenib N-oxide in rats (HPLC-UV); conditions: for AUC0-t / AUC(0-inf) / Cmax / Vd/F / k el / half-life: male, Wistar, rat, plasma, po, 100 mg/kg; for AUC0-t / AUC(0-inf) / Cmax / Vd/F / k el / ka: rat plasma; for AUC(0-inf): AUC0-∞; for k el: kel; for half-life: t1/2, rat plasma;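 as to all read-outs here: pharmacokinetic parameters were computed with Phoenix WinNonlin 8.0 software from the plasma concentration–time curve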
Excerpt: as §2

[7] = cited from earlier work
[8] = cited from earlier work; remark: listed apart in the source
[9] = Plasma pharmacokinetics of metformin in rats (HPLC-UV)
Excerpt: as §2

[10] = in vivo; conditions: male, Wistar, rat, plasma, po, 100 mg/kg
Excerpt: as §2

[11] = single oral atorvastatin 20 mg/kg b.w. alone (IVAT group)
[12] = single oral sorafenib 100 mg/kg + atorvastatin 20 mg/kg b.w. (ISOR+AT group)
[13] = rats, ISOR+AT group vs IVAT group
[14] = single oral sorafenib 100 mg/kg + metformin 100 mg/kg b.w. (IISOR+MET group)
[15] = single oral sorafenib 100 mg/kg b.w. alone (IIISOR group)
[16] = rats, IISOR+MET group vs IIISOR group
[17] = rats, ISOR+AT group vs IIISOR group
[18] = rat plasma, single oral sorafenib 100 mg/kg + metformin 100 mg/kg b.w. (IISOR+MET group)

CC(C)c1c(C(=O)Nc2ccccc2O)c(-c2ccccc2)c(-c2ccc(F)cc2)n1CCC(O)CC(O)CC(=O)O (stereo not drawn) [2-OH AT, 2-hydroxy atorvastatin]
AUC0-t [1, 11]: 617.32 ± 277.54 (45.0) ng × h/mL
AUC0-∞ [1, 11]: 695.68 ± 297.16 (42.7) ng × h/mL
Cmax [1, 11]: 175.20 ± 116.62 (66.6) ng/mL
metabolite/atorvastatin Cmax ratio [1, 11]: 2.35 ± 1.12 (47.6) ng/mL
AUC0-t [1, 12]: 958.91 ± 342.91 (35.8) ng × h/mL
AUC0-∞ [1, 12]: 993.97 ± 343.87 (34.6) ng × h/mL
Cmax [1, 12]: 185.82 ± 90.16 (48.5) ng/mL
metabolite/atorvastatin Cmax ratio [1, 12]: 2.43 ± 1.06 (43.6) ng/mL
change in the 2-OH AT/atorvastatin ratio for AUC0-t [1, 13]: −19.4%
change in the 2-OH AT/atorvastatin ratio for AUC0-∞ [1, 13]: −26.0%
increase in AUC caused by sorafenib (abstract) [1, 13]: 55.3%

CC(C)c1c(C(=O)Nc2ccc(O)cc2)c(-c2ccccc2)c(-c2ccc(F)cc2)n1CC[C@@H](O)C[C@@H](O)CC(=O)O [4-OH AT, 4-hydroxy atorvastatin]
AUC0-t [2]: 14.63 ± 5.57 (38.1) ng × h/mL
AUC0-∞ [2]: 19.22 ± 7.06 (36.7) ng × h/mL

CC(C)c1c(C(=O)Nc2ccccc2)c(-c2ccccc2)c(-c2ccc(F)cc2)n1CC[C@@H](O)C[C@@H](O)CC(=O)O [Atorvastatin, atorvastatin]
adverse effects ([3]; 20 mg/kg single oral dose): did not cause any adverse effects
safety [4]: safe

CNC(=O)c1cc(Oc2ccc(NC(=O)Nc3ccc(Cl)c(C(F)(F)F)c3)cc2)cc[n+]1[O-] [Sorafenib N-oxide, sorafenib N-oxide]
AUC0-t [5]: 4.10 ± 1.56 (38.1) µg × h/mL
AUC0-∞ [5]: 8.61 ± 2.19 (25.4) µg × h/mL
k el [5]: 0.016 ± 0.010 (60.9) h^−1
tmax [5]: 16.38 ± 8.21 (50.1) h

CNC(=O)c1cc(Oc2ccc(NC(=O)Nc3ccc(Cl)c(C(F)(F)F)c3)cc2)ccn1 [Sorafenib, sorafenib]
AUC0-t [6, 12]: 105000 ± 18900 ng·h/mL
AUC0-t [6, 14]: 35200 ± 8360 ng·h/mL
AUC0-t [6, 15]: 62800 ± 16100 ng·h/mL
AUC(0-inf) [6, 12]: 106000 ± 19300 ng·h/mL
AUC(0-inf) [6, 14]: 36800 ± 8960 ng·h/mL
Cmax [6, 12]: 3660 ± 1210 ng/mL
Cmax [6, 14]: 1270 ± 380 ng/mL
Vd/F [6, 12]: 9.98 ± 2.48 L
Vd/F [6, 14]: 34.1 ± 18.7 L
Vd/F [6, 15]: 25.3 ± 11.6 L
k el [6, 12]: 1.39e-05 s⁻¹
k el [6, 14]: 1.39e-05 s⁻¹
k el [6, 15]: 9.72e-06 s⁻¹
half-life [6, 12]: 14.7 ± 3.17 h
half-life [6, 14]: 16.3 ± 3.72 h
half-life [6, 15]: 21.9 ± 7.79 h
ka [6, 12]: 0.20 ± 0.11 (53.2) h^−1
ka [6, 14]: 0.35 ± 0.23 (66.8) h^−1
ka [6, 15]: 0.74 ± 0.31 (42.5) h^−1
decrease in AUC0-t in the presence of metformin [6, 16]: 44.0%
decrease in AUC0-∞ in the presence of metformin [6, 16]: 45.1%
decrease in ka in the presence of metformin [6, 16]: 0.5 fold
increase in clearance in the presence of metformin [6, 16]: 76.3%
decrease in ka with co-administered atorvastatin [6, 17]: 73.0%
decrease in t1/2 with co-administered atorvastatin [6, 17]: 0.3 fold
increase in AUC0-t with co-administered atorvastatin [6, 17]: 66.6%
increase in AUC0-∞ with co-administered atorvastatin [6, 17]: 58.7%
increase in AUC with co-administered atorvastatin (abstract) [6, 17]: 66.6%
increase in Cmax with co-administered atorvastatin [6, 17]: 134.6%
increase in kel with co-administered atorvastatin [6, 17]: 42.9%
increase in tmax with co-administered atorvastatin [6, 17]: 116.9%
decrease in sorafenib absorption with a high-fat diet ([7]; clinically important interaction): 30%
share in the systemic circulation ([7]; sorafenib unchanged or as sorafenib N-oxide): 70−85%
protein-bound form in plasma [8]: 99.5%

CN(C)C(=N)N=C(N)N [metformin]
adverse effects ([3]; 100 mg/kg single oral dose): did not cause any adverse effects
Cl/F ([9]; rat plasma, single oral metformin 100 mg/kg b.w. alone (VMET group)): 6.31 ± 1.48 (23.5) L/h
AUC0-t [9, 18]: 3.64 ± 1.15 (31.6) µg × h/mL
AUC0-∞ [9, 18]: 10.88 ± 4.50 (41.4) µg × h/mL
Cl/F [9, 18]: 5.50 ± 3.08 (56.0) L/h
Cmax [9, 18]: 0.46 ± 0.26 (56.5) µg/mL
MRT0-t [9, 18]: 8.65 ± 2.22 (25.7) h
Vd/F [9, 18]: 297.89 ± 133.23 (44.7) L
k el [9, 18]: 0.03 ± 0.04 (133.3) h^−1
tmax [9, 18]: 1.88 ± 0.23 (12.2) h
increase in tmax with co-administered sorafenib ([9]; rats, IISOR+MET group vs VMET group): 71.39%
AUC0-t [10]: 3830 ± 1230 ng·h/mL
AUC(0-inf) [10]: 7900 ± 1930 ng·h/mL
Cmax [10]: 500 ± 290 ng/mL
MRT last [10]: 9.81 ± 1.27 h
Vd/F [10]: 228 ± 91 L
k el [10]: 8.33e-06 s⁻¹
tmax [10]: 1.09 ± 0.57 h
plasma protein-bound fraction [8]: negligible
